Measurements taken from US20200017496A1 (priority 2017, published 2020).
Read-outs that look alike come from different tables or passages of the source.

What was measured:
Experiment in all cases: MIC of compounds alone and combined with antibacterials, broth microdilution (CLSI)
Type in all cases: cell-based
[1] = test system: Citrobacter koseri (CKR) isolates; settings: for MIC ATB in combination: AF1 @ 4 μg/mL; for MIC: Citrobacter koseri, ATB alone
Outline: (§1)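 Log-phase bacteria at a final 5·10^5 CFU/mL in cation-adjusted Mueller-Hinton broth were incubated 16-20 h at 35° C in ambient air with compound alone or with an antibacterial. MIC was the lowest concentration preventing visible growth; combination MIC of the antibacterial was read at each compound concentration.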

[2] = test system: Enterobacter cloacae (ECL) isolates; settings: for MIC: Enterobacter cloacae, ATB alone
Outline: as §1

[3] = test system: Klebsiella oxytoca (KOX) isolates; settings: for MIC ATB in combination: AF1 @ 4 μg/mL; for MIC: Klebsiella oxytoca, ATB alone
Outline: as §1

[4] = test system: Providencia rettgeri (PRE) isolates; settings: for MIC: Providencia rettgeri, ATB alone
Outline: as §1

[5] = test system: Salmonella typhimurium (STY) isolates
Outline: as §1

[6] = test system: Serratia marcescens (SMA) isolates; settings: for MIC: Serratia marcescens
Outline: as §1

Compound: CO/N=C(\C(=O)N[C@@H]1C(=O)N2C(C(=O)O)=C(COC(N)=O)CS[C@H]12)c1ccco1 [FUR, Cefuroxime]
- MIC ATB in combination ([1]; CKO ROU): 32 µg/mL
- MIC ATB in combination ([1]; CKO UFR149): 128 µg/mL
- MIC ATB in combination ([1]; CKO UFR150): 32 µg/mL
- MIC ([1]; strain CKO ROU (TEM-1, SHV-12, CTX-M-15, OXA-1, OXA-48), read-out: MIC): 64 µg/mL
- MIC ([1]; strain CKO UFR149 (OXA-48)): > 256 µg/mL
- MIC ([1]; strain CKO UFR150 (TEM-1, OXA-48), read-out: MIC): 64 µg/mL
- MIC ATB in combination ([2]; ECL 190408, AF1 @ 4 μg/mL): 4 µg/mL
- MIC ATB in combination ([2]; ECL 200322, AF1 @ 4 μg/mL): 32 µg/mL
- MIC ATB in combination ([2]; ECL 260508, AF1 @ 4 μg/mL): 32 µg/mL
- MIC ATB in combination ([2]; ECL P99, AF1 @ 4 μg/mL): 64 µg/mL
- MIC ATB in combination ([2]; ECL UFR12, AF1 @ 4 μg/mL): 16 µg/mL
- MIC ATB in combination ([2]; ECL UFR60, AF1 @ 4 μg/mL): 64 µg/mL
- MIC ATB in combination ([2]; ECL UFR70, AF1 @ 4 μg/mL): 32 µg/mL
- MIC ATB in combination ([2]; ECL UFR194, AF1 @ 4 μg/mL): 32 µg/mL
- MIC ATB in combination ([2]; ECL UFR200, AF1 @ 4 μg/mL): 16 µg/mL
- MIC ([2]; strain ECL UFR197 (TEM-1, CTX-M-15, OXA-1, OXA-48)): > 256 µg/mL
- MIC ([2]; strain ECL UFR198 (TEM-1, SHV-12, CTX-M-15, DHA-1, OXA-1, OXA-48)): > 256 µg/mL
- MIC ([2]; strain ECL 2185D (OXA-163)): > 256 µg/mL
- MIC ([2]; strain ECL 190310 (AmpC)): > 256 µg/mL
- MIC ([2]; strain ECL 190408 (TEM-1, CTX-M-15, OXA-1)): > 256 µg/mL
- MIC ([2]; strain ECL 200138 (AmpC)): > 256 µg/mL
- MIC ([2]; strain ECL 200322 (TEM-1, CTX-M-15, OXA-1)): > 256 µg/mL
- MIC ([2]; strain ECL 260033 (AmpC)): > 256 µg/mL
- MIC ([2]; strain ECL 260253 (TEM-1, KPC-3)): > 256 µg/mL
- MIC ([2]; strain ECL 260323 (AmpC)): > 256 µg/mL
- MIC ([2]; strain ECL 260508 (TEM-1, CTX-M-15)): > 256 µg/mL
- MIC ([2]; strain ECL NEM146383 (AmpC)): > 256 µg/mL
- MIC ([2]; strain ECL P99 (AmpC), read-out: MIC): > 512 µg/mL
- MIC ([2]; strain ECL UFR12 (CTX-M-9, OXA-48)): > 256 µg/mL
- MIC ([2]; strain ECL UFR13 (TEM-1, SHV-12, CTX-M-9, OXA-48)): > 256 µg/mL
- MIC ([2]; strain ECL UFR14 (TEM-1, SHV-12, CTX-M-15, DHA-1, OXA-1, OXA-48)): > 256 µg/mL
- MIC ([2]; strain ECL UFR60 (TEM-1, CTX-M-15, KPC-2)): > 256 µg/mL
- MIC ([2]; strain ECL UFR70 (TEM-1, CTX-M-15, CMY-2, OXA-1, Porin loss)): > 256 µg/mL
- MIC ([2]; strain ECL UFR84 (TEM-1, AmpC, OXA-1)): > 256 µg/mL
- MIC ([2]; strain ECL UFR85 (TEM-1, CTX-M-15, AmpC)): > 256 µg/mL
- MIC ([2]; strain ECL UFR194 (OXA-48)): 32 µg/mL
- MIC ([2]; strain ECL UFR195 (TEM-1, CTX-M-15, OXA-1, OXA-48)): > 256 µg/mL
- MIC ([2]; strain ECL UFR196 (TEM-1, CTX-M-15, OXA-1, OXA-48)): > 256 µg/mL
- MIC ([2]; strain ECL UFR200 (TEM-1, SHV-12, KPC-2)): > 256 µg/mL
- MIC ATB in combination ([2]; strain ECL UFR195, antibacterial combined with AF1 @ 4 μg/mL): 32 µg/mL
- MIC ATB in combination ([2]; strain ECL UFR196, antibacterial combined with AF1 @ 4 μg/mL): 64 µg/mL
- MIC ATB in combination ([2]; strain ECL UFR197, antibacterial combined with AF1 @ 4 μg/mL): 64 µg/mL
- MIC ATB in combination ([3]; KOX UFR21): 16 µg/mL
- MIC ATB in combination ([3]; KOX UFR173): 4 µg/mL
- MIC ATB in combination ([3]; KOX UFR223): 2 µg/mL
- MIC ATB in combination ([3]; KOX UFR224): 2 µg/mL
- MIC ([3]; strain KOX UFR21 (TEM-1, CTX-M-15, OXA-48)): > 256 µg/mL
- MIC ([3]; strain KOX UFR173 (OXY2-2), read-out: MIC): > 256 µg/mL
- MIC ([3]; strain KOX UFR223 (SHV-11, OXA-48), read-out: MIC): 8 µg/mL
- MIC ([3]; strain KOX UFR224 (CTX-M-15, OXA-48)): > 256 µg/mL
- MIC ATB in combination ([4]; PRE UFR99, AF1 @ 4 μg/mL): >128 µg/mL
- MIC ([4]; strain PRE UFR99 (OXA-1, OXA-181)): > 256 µg/mL
- MIC ([4]; strain PRE UFR236 (TEM-1, OXA-48), read-out: MIC): 64 µg/mL
- MIC ATB in combination ([4]; strain PRE UFR236, antibacterial combined with AF1 @ 4 μg/mL): 8 µg/mL
- MIC ATB in combination ([5]; STY S3371, AF1 @ 4 μg/mL): 4 µg/mL
- MIC ([5]; Salmonella enterica, TYPHIMURIUM, strain STY S3371 (OXA-1), ATB alone): 32 µg/mL
- MIC ATB in combination ([6]; SMA UFR30, AF1 @ 4 μg/mL): 64 µg/mL
- MIC ATB in combination ([6]; SMA UFR134, AF1 @ 4 μg/mL): 64 µg/mL
- MIC ATB in combination ([6]; SMA UFR135, AF1 @ 4 μg/mL): >128 µg/mL
- MIC ATB in combination ([6]; SMA UFR136, AF1 @ 4 μg/mL): >128 µg/mL
- MIC ATB in combination ([6]; SMA UFR137, AF1 @ 4 μg/mL): 32 µg/mL
- MIC ATB in combination ([6]; SMA UFR138, AF1 @ 4 μg/mL): 64 µg/mL
- MIC ATB in combination ([6]; SMA UFR139, AF1 @ 4 μg/mL): 64 µg/mL
- MIC ATB in combination ([6]; SMA UFR141, AF1 @ 4 μg/mL): 128 µg/mL
- MIC ATB in combination ([6]; SMA UFR142, AF1 @ 4 μg/mL): 64 µg/mL
- MIC ATB in combination ([6]; SMA UFR143, AF1 @ 4 μg/mL): 32 µg/mL
- MIC ATB in combination ([6]; SMA UFR239, AF1 @ 4 μg/mL): >128 µg/mL
- MIC [6]: > 256 µg/mL
- MIC ([6]; ATB alone, strain SMA UFR238 (OXA-48), read-out: MIC): > 256 µg/mL
- MIC ([6]; strain SMA UFR30 (OXA-405), ATB alone, read-out: MIC): > 256 µg/mL
- MIC ([6]; strain SMA UFR134 (TEM-1, BES-1), ATB alone, read-out: MIC): > 256 µg/mL
- MIC ([6]; strain SMA UFR137 (SME-1), ATB alone, read-out: MIC): 256 µg/mL
- MIC ([6]; strain SMA UFR138 (SME-1), ATB alone, read-out: MIC): 256 µg/mL
- MIC ([6]; strain SMA UFR139 (SME-2), ATB alone, read-out: MIC): > 256 µg/mL
- MIC ([6]; strain SMA UFR141 (OXA-48), ATB alone, read-out: MIC): > 256 µg/mL
- MIC ([6]; strain SMA UFR142 (OXA-48), ATB alone, read-out: MIC): > 256 µg/mL
- MIC ([6]; strain SMA UFR143 (CTX-M-15, OXA-1, OXA-48), ATB alone, read-out: MIC): > 256 µg/mL
- MIC ([6]; strain SMA UFR239 (ESAC), ATB alone, read-out: MIC): 256 µg/mL
- MIC ATB in combination ([6]; strain SMA UFR238, antibacterial combined with AF1 @ 4 μg/mL): 64 µg/mL
